Data as given in patent publication US6737383B1, “Herbicidal oxadiazolidines” (priority 1999, dated 2004).

Tests used:
velvetleaf = assay: Test B pre/postemergence velvetleaf; assay type: in vivo, Abutilon theophrasti
Method in brief: (§1)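 Response is a visual 0-to-10 score relative to untreated plants, where 0 means no effect and 10 means complete control, taken twelve to sixteen days after application. Treatments went onto soil at planting and onto foliage of 1- to 4-leaf plants, using a surfactant-containing non-phytotoxic solvent.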

smallflower flatsedge = assay: Test B flood test smallflower flatsedge; assay type: in vivo, Cyperus difformis; conditions: for S. Flatsedge plant response rating (0 to 10 scale, 0 is no effect, 10 is complete control): under heading Pre-emergence
Method in brief: (§2)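 Each value is a visual injury score relative to controls, with 10 meaning complete control and 0 no effect. Evaluation took place twelve to sixteen days after the 2-leaf-stage plants were treated and kept in the greenhouse.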

duck salad = assay: Test B flood test duck salad; assay type: in vivo, Heteranthera limosa; conditions: for Ducksalad plant response rating (0 to 10 scale, 0 is no effect, 10 is complete control): under heading Pre-emergence
Method in brief: as §2

soybean = assay: Test B pre/postemergence soybean; assay type: in vivo, Glycine max
Method in brief: as §1

[1] = Postemergence, Rate 62 g/ha, scale 0 to 10, 0 is no effect, 10 is complete control
[2] = Postemergence, Rate 125 g/ha, scale of 0 to 10 where 0 is no effect and 10 is complete control
[3] = Postemergence, Rate 250 g/ha, scale of 0 to 10, 0 is no effect, 10 is complete control
[4] = Preemergence, Rate 62 g/ha, scale of 0 to 10 where 0 is no effect and 10 is complete control
[5] = Preemergence, Rate 125 g/ha, scale of 0 to 10 where 0 is no effect and 10 is complete control
[6] = Preemergence, Rate 250 g/ha, scale 0 to 10 (0 no effect, 10 complete control)
[7] = Preemergence, Rate 500 g/ha, scale of 0 to 10 where 0 is no effect and 10 is complete control
[8] = Rate 62 g/ha, flood test species, Pre-emergence, visual evaluation after twelve to sixteen days
[9] = Rate 125 g/ha, flood test species, visual evaluation after twelve to sixteen days
[10] = Rate 250 g/ha, Pre-emergence (flood test species), scale 0 to 10, 0 is no effect, 10 is complete control
[11] = Rate 500 g/ha, Pre-emergence section of Table B, 0 to 10 scale (0 no effect, 10 complete control)
[12] = Postemergence, Rate 250 g/ha, scale 0 to 10
[13] = Postemergence, Rate 500 g/ha, scale of 0 to 10 where 0 is no effect and 10 is complete control
[14] = Postemergence, Rate 1000 g/ha, scale 0 to 10 (0 no effect, 10 complete control)
[15] = Preemergence, Rate 250 g/ha, scale 0 to 10, 0 is no effect, 10 is complete control
[16] = Preemergence, Rate 500 g/ha, scale 0 to 10, 0 is no effect, 10 is complete control
[17] = Rate 125 g/ha, Postemergence, scale 0 to 10, 0 is no effect, 10 is complete control
[18] = Rate 1000 g/ha, Preemergence, scale 0 to 10 (0 no effect, 10 complete control)
[19] = Pre-emergence, Rate 1000 g/ha, scale 0 to 10 (0 no effect, 10 complete control)
[20] = Rate 500 g/ha, Pre-emergence, flood test species, scale 0 to 10 (0 no effect, 10 complete control)
[21] = Postemergence, Rate 250 g/ha, scale 0 to 10, 0 no effect, 10 complete control
[22] = Preemergence, Rate 62 g/ha, scale 0 to 10, 0 is no effect, 10 is complete control
[23] = Preemergence, Rate 125 g/ha, scale 0 to 10 (0 no effect, 10 complete control)
[24] = Preemergence, Rate 250 g/ha, scale of 0 to 10 where 0 is no effect and 10 is complete control
[25] = Preemergence, Rate 500 g/ha, scale 0 (no effect) to 10 (complete control)
[26] = Rate 125 g/ha, Postemergence, scale 0 to 10, 0 no effect, 10 complete control
[27] = Rate 125 g/ha, Postemergence section (flood test species), scale 0 to 10, 0 no effect, 10 complete control
[28] = flood test, listed under Postemergence, Rate 250 g/ha, scale 0 to 10, 0 no effect, 10 complete control

CC(C)N(C(=O)n1oc(=O)n(CC(=O)C2CCC2)c1=O)c1ccc(F)cc1 [Compound 640]
3: Plant response rating, Velvetleaf (velvetleaf; [2]) | Velvetleaf plant response rating (velvetleaf; [3])
0: Plant response rating, Velvetleaf (velvetleaf; [1]) | Velvetleaf plant response rating (velvetleaf; [4]) | Velvetleaf plant response rating (velvetleaf; [5]) | Plant response rating, Velvetleaf (velvetleaf; [6]) | Plant response rating, Velvetleaf (velvetleaf; [7]) | Plant response rating, S. Flatsedge (0 to 10 scale, 0 is no effect, 10 is complete control) (smallflower flatsedge; [8]) | S. Flatsedge plant response rating (0 to 10 scale, 0 is no effect, 10 is complete control) (smallflower flatsedge; [9]) | S. Flatsedge plant response rating (smallflower flatsedge; [10]) | S. Flatsedge plant response rating (smallflower flatsedge; [11]) | Plant response rating, Ducksalad (0 to 10 scale, 0 is no effect, 10 is complete control) (duck salad; [8]) | Ducksalad plant response rating (0 to 10 scale, 0 is no effect, 10 is complete control) (duck salad; [9]) | Ducksalad plant response rating (duck salad; [10]) | Ducksalad plant response rating (duck salad; [11]) | Plant response rating, Soybean (soybean; [1]) | Plant response rating, Soybean (soybean; [2]) | Soybean plant response rating (soybean; [3]) | Soybean plant response rating (soybean; [4]) | Soybean plant response rating (soybean; [5]) | Plant response rating, Soybean (soybean; [6]) | Plant response rating, Soybean (soybean; [7])

CCOP(=O)(OCC)C(C)n1c(=O)on(C(=O)N(c2ccccc2)C(C)C)c1=O (stereo not shown) [Compound 448]
2: Velvetleaf plant response rating (velvetleaf; [14]) | Soybean plant response rating (soybean; [12])
1: Soybean plant response rating (soybean; [17])
6: Soybean plant response rating (soybean; [14])
0: Velvetleaf plant response rating (velvetleaf; [12]) | Velvetleaf plant response rating (velvetleaf; [13]) | Plant response rating, Velvetleaf (velvetleaf; [5]) | Velvetleaf plant response rating (velvetleaf; [15]) | Velvetleaf plant response rating (velvetleaf; [16]) | Velvetleaf plant response rating (velvetleaf; [17]) | Plant response rating, Velvetleaf (velvetleaf; [18]) | S. Flatsedge plant response rating (smallflower flatsedge; [19]) | S. Flatsedge plant response rating (0 to 10 scale, 0 is no effect, 10 is complete control) (smallflower flatsedge; [9]) | S. Flatsedge plant response rating (smallflower flatsedge; [10]) | S. Flatsedge plant response rating (smallflower flatsedge; [20]) | Ducksalad plant response rating (duck salad; [19]) | Ducksalad plant response rating (0 to 10 scale, 0 is no effect, 10 is complete control) (duck salad; [9]) | Ducksalad plant response rating (duck salad; [10]) | Ducksalad plant response rating (duck salad; [20]) | Plant response rating, Soybean (soybean; [5]) | Soybean plant response rating (soybean; [15]) | Soybean plant response rating (soybean; [16]) | Plant response rating, Soybean (soybean; [18])
5: Soybean plant response rating (soybean; [13])

CC(C)N(C(=O)n1oc(=O)n(-c2ccc(Cl)cc2C(F)(F)F)c1=O)c1ccc(F)cc1 [Compound 20]
0: Velvetleaf plant response rating (velvetleaf; [1]) | Velvetleaf plant response rating (velvetleaf; [21]) | Plant response rating, Velvetleaf (velvetleaf; [22]) | Plant response rating, Velvetleaf (velvetleaf; [23]) | Plant response rating, Velvetleaf (velvetleaf; [24]) | Velvetleaf plant response rating (velvetleaf; [25]) | Velvetleaf plant response rating (velvetleaf; [26]) | S. Flatsedge plant response rating (smallflower flatsedge; [1]) | S. Flatsedge plant response rating (smallflower flatsedge; [27]) | S. Flatsedge plant response rating (smallflower flatsedge; [28]) | Ducksalad plant response rating (duck salad; [1]) | Ducksalad plant response rating (duck salad; [27]) | Ducksalad plant response rating (duck salad; Rate 500 g/ha, Postemergence section of Table B, 0 to 10 scale (0 no effect, 10 complete control)) | Ducksalad plant response rating (duck salad; [28]) | Plant response rating, Soybean (soybean; [22]) | Plant response rating, Soybean (soybean; [23]) | Plant response rating, Soybean (soybean; [24]) | Soybean plant response rating (soybean; [25])
3: Soybean plant response rating (soybean; [1]) | Soybean plant response rating (soybean; [21]) | Soybean plant response rating (soybean; [26])
